From patent publication US10183919B2 (priority 2014, dated 2019)
Counter-ions that a name gives are not always drawn. Like-named read-outs stand apart in the source and are kept apart here.

Columns and labels:
Mouse MOR = target: T1, Mouse MOR (Mus musculus, UniProt P42866); assay: BRET G protein activation assay, HEK-293T cells transfected with mouse MOR; format: cell-based
T1 construct: expressed in transfected cells; host or cells: HEK-293T
From the text: (§1) Transfection. Human or mouse MOR cDNA was transfected alongside GαoB with RLuc8 inserted at position 91 (GαoB-RLuc8), Gβ1 (β1), and Gγ2 fused to the full-length mVenus at its N terminus (mVenus-γ2) into HEK-293T cells (5×10^6 cells/plate) in 10-cm dishes using PEI (Polysciences Inc.; Warrington, Pa.) in a 1:1 ratio diluted in Opti-MEM (Life Technologies Corp.; Grand Island, N.Y.) to assay for G protein activation as described previously (Rives, M.-L. et al. J. Biol. Chem. 2012, 287, 27050-4; Negri, A.; Rives, M.-L.; Caspers, M. J. et al. J. Chem. Inf. Model. 2013, 53, 521-526). Cells were maintained in the Dulbecco's Modified Eagle Medium (high glucose #11965; Life Technologies) supplemented with 10% FBS (Premium Select, Atlanta Biologicals; Atlanta, Ga.) and 100 U/mL penicillin and 100 μg/mL streptomycin (#15140, Life Technologies). After 24 hours the media was changed, and the experiment was performed 24 hours later (48 hours after transfection).
(§2) BRET. Transfected cells were dissociated and resuspended in phosphate-buffered saline (PBS). Approximately 200,000 cells/well were added to a black-framed, white well 96-well plate (#60050; Perkin Elmer; Waltham, Mass.). The microplate was centrifuged and the cells were resuspended in PBS. Then 5 μM of the luciferase substrate coelenterazine H was added to each well for 5 minutes. Following coelenterazine H addition, ligands were added and the BRET signal was measured at 5 minutes on a PHERAstar FS plate reader. Quantification of the BRET signal required calculating the ratio of the light emitted by the energy acceptor, mVenus (510-540 nm), over the light emitted by the energy donor, RLuc8 (485 nm). […] Dose response curves were fit using three-parameter logistics equation in GraphPad Prism 6.

Human MOR = target: T2, Human MOR (Homo sapiens, UniProt P35372); assay: cell-based
T2 construct: expressed in transfected cells; host or cells: HEK-293T
From the text: as §1, §2

[1] = Pharmacokinetics and brain distribution after a single intraperitoneal dose; conditions: i.p. 10 mg/kg, male C57BL/6 mice
Procedure: For each compound, a group of twenty four male mice were administered with a solution formulation of the drug in normal saline intraperitoneally at a dose of 10 mg/kg. Blood samples (approximately 60 μL) were collected under light isoflurane anesthesia from the retro orbital plexus at 0.08, 0.25, 0.5, 1, 2, 4, 8 and 24 hr. Plasma samples were separated by centrifugation of whole blood and stored below −70° C. until bioanalysis. Immediately after collection of blood, brain samples were collected from each mouse at 0.08, 0.25, 0.5, 1, 2, 4, 8 and 24 hr. Brain samples were homogenized using ice-cold phosphate buffer saline (pH 7.4) and homogenates were stored below −70° C. until analysis. Total homogenate volume was three times the tissue weight. All samples were processed for analysis by protein precipitation using acetonitrile (ACN) and analyzed with fit-for-purpose LC/MS/MS method (LLOQ-1.01 ng/mL in plasma and brain). Pharmacokinetic parameters were calculated using the non-compartmental analysis tool of Phoenix WinNonlin® (Version 6.3).

[2] = BRET G protein activation, HEK-293T, mean ± SEM of independent trials, read-out: EC50 Mouse MOR

T2 sequence (P35372 whole entry): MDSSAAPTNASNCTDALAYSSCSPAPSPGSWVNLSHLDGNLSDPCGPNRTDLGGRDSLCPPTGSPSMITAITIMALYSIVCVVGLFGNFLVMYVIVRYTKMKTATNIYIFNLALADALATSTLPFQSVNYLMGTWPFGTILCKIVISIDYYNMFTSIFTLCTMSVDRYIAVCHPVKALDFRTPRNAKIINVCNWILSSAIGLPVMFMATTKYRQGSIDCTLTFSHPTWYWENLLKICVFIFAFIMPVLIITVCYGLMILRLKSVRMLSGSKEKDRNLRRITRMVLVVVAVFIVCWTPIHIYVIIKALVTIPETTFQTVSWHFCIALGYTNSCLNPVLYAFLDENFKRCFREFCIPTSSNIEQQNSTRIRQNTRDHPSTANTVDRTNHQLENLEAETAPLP
T1 sequence (P42866 whole entry): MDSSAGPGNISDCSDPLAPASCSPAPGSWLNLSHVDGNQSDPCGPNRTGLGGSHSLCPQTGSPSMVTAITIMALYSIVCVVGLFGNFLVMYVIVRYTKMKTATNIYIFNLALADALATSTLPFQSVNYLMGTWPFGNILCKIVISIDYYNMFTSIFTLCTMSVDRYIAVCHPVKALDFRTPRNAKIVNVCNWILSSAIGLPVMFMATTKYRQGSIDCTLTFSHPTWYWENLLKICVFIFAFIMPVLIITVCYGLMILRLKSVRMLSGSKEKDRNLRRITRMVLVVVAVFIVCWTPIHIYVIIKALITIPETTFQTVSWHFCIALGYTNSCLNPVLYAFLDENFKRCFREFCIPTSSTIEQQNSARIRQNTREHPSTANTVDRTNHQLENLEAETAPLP

| Structure (SMILES) | EC50 (Mouse MOR; [2]) [µM] | EC50 (Human MOR) [µM] | EC50 (Mouse MOR) [µM] | also measured |
| --- | --- | --- | --- | --- |
| COCCCNC1c2ccccc2N(C)S(=O)(=O)c2cc(SC)ccc21 (stereo not shown) [compound 44, 11-((3-Methoxypropyl)amino)-6-methyl-3-(methylthio)-6, 11-dihydrodibenzo[c,f][1,2]thiazepine 5,5-dioxide] | < 10 | < 10 |  |  |
| CN1c2ccccc2C(NCCCCCCC(=O)O)c2ccc(Cl)cc2S1(=O)=O (stereo not shown) [tianeptine, reference compound] |  | 0.194 ± 0.07 | 0.641 ± 0.12 |  |
| CNC1c2ccccc2N(C)S(=O)(=O)c2cc(Cl)ccc21 (stereo not shown) [compound 20, 3-Chloro-6-methyl-11-(methylamino)-6,11-dihydrodibenzo [c,f][1,2]thiazepine 5,5-dioxide] | < 10 | < 10 |  |  |
| CCCCCNC1c2ccccc2N(C)S(=O)(=O)c2cc(Cl)ccc21 (stereo not shown) [compound 19, 3-Chloro-6-methyl-11-(pentylamino)-6,11-dihydrodibenzo [c,f][1,2]thiazepine 5,5-dioxide] | < 10 | < 10 |  |  |
| CCOC(=O)CCCCNC1c2ccccc2N(C)S(=O)(=O)c2cc(Cl)ccc21 (stereo not shown) [compound 17, Ethyl 5-((3-chloro-6-methyl-5,5-dioxido-6,11-dihydrodibenzo[c,f][1,2]thiazepin-11-yl)amino)pentanoate] |  | < 10 | < 10 |  |
| CN1c2ccccc2C(NCCCCCCC(=O)O)c2ccccc2S1(=O)=O (stereo not shown) [compound 80, 7-((6-Methyl-5,5-dioxido-6,11-dihydrodibenzo[c,f][1,2]thiazepin-11-yl)amino)heptanoic acid hydrochloride salt] |  | < 10 | < 10 |  |
| COCCCNC1c2ccccc2N(C)S(=O)(=O)c2cc(Cl)ccc21 (stereo not shown) [compound 23, 3-Chloro-11-((3-methoxypropyl)amino)-6-methyl-6,11-dihydrodibenzo [c,f][1,2]thiazepine 5,5-dioxide] | 1.2 ± 0.03 | 0.264 ± 0.0853 |  | AUClast ([1]; brain): 335.03 ng·h/g; CL ([1]; brain): 260.44 mL/min/kg; MRTlast ([1]; brain): 1.27 h; T1/2 ([1]; brain): 5.12 h; Tmax ([1]; brain): 0.08 h; half-life compared with tianeptine ([1]; Tables 3 and 4): much longer half-life; systemic exposure (AUC) compared with tianeptine ([1]; Tables 3 and 4): higher systemic exposure (AUC); AUClast ([1]; plasma): 3058.80 ng·h/mL; CL ([1]; plasma): 44.27 mL/min/kg; Cmax ([1]; plasma): 1535.74 ng/mL; MRTlast ([1]; plasma): 2.29 h; T1/2 ([1]; plasma): 3.93 h; Tmax ([1]; plasma): 0.25 h |
| CCCNC1c2ccccc2N(C)S(=O)(=O)c2cc(Cl)ccc21 (stereo not shown) [compound 21, 3-Chloro-6-methyl-11-(propylamino)-6,11-dihydrodibenzo [c,f][1,2]thiazepine 5,5-dioxide] | < 10 | < 10 |  |  |
| CCCCCNC1c2ccccc2N(C)S(=O)(=O)c2ccccc21 (stereo not shown) [compound 8, 6-Methyl-11(pentylamino)-6,11-dihydrodibenzo[c,f][1,2]thiazepine 5,5-dioxide] | < 10 | < 10 |  |  |
| CCOC(=O)CCCCCCNC1c2ccccc2N(C)S(=O)(=O)c2cc(SC)ccc21 (stereo not shown) [compound 45, Ethyl 7-((6-methyl-3-(methylthio)-5,5-dioxido-6,11-dihydrodibenzeo[c,f] [1,2] 1, 2lazepin-11-yl)amino) heptanotate] | < 10 | < 10 |  |  |
| CCOC(=O)CCCCCCNC1c2ccccc2N(C)S(=O)(=O)c2ccccc21 (stereo not shown) [compound 9, Ethyl 7-((6-methyl-5,5-dioxido-6,11-dihydrodibenzo[c,f][1,2]thiazepin-11-yl)amino)heptanoate] |  | < 10 | < 10 |  |
| CC(C)NC1c2ccccc2N(C)S(=O)(=O)c2cc(Cl)ccc21 (stereo not shown) [compound 22, 3-Chloro-11-(isopropylamino)-6-methyl-6,11-dihydrodibenzo [c,f][1,2]thiazepine 5,5-dioxide] | < 10 | < 10 |  |  |
